Series [1] can be described thus: in vivo. Conditions: male, SD, rat, 30 mg/kg.
Description: (§3) Twelve male SD rats were randomly divided into 4 groups, with 3 rats in each group. They were fasted for 8 hours before the test and had free access to water. The rats were intragastrically administered with 30 mg/kg of the test substance solution, and 0.3 mL of blood was collected from the jugular venous plexus of the rats before and 0.25 hours after administration. The rats were then anesthetized, the chest cavity was opened, the right atrial appendage was cut, and the blood was rapidly perfused from the back of the left ventricle. When the outflowing liquid was transparent and bloodless, the perfusion could be stopped, and the brain tissue was removed, dried with filter paper, weighed, and homogenized with an appropriate amount of physiological saline (1:4, v/v) to prepare a brain tissue homogenate. The whole blood sample was centrifuged at 4000 r/min for 10 min to separate the plasma.
(§4) The established LC-MS/MS method is used to detect the concentration of the test substance in plasma and brain tissue homogenate. The brain-to-blood ratio (Kb/p) of the test substance can be obtained by dividing the drug concentration in brain tissue by the drug concentration in plasma.
The target in series [2] is T1, OX1 receptor (Homo sapiens, UniProt O43613).
T1 construct: host or cells: CHO-K1
T1 sequence (O43613 1-425): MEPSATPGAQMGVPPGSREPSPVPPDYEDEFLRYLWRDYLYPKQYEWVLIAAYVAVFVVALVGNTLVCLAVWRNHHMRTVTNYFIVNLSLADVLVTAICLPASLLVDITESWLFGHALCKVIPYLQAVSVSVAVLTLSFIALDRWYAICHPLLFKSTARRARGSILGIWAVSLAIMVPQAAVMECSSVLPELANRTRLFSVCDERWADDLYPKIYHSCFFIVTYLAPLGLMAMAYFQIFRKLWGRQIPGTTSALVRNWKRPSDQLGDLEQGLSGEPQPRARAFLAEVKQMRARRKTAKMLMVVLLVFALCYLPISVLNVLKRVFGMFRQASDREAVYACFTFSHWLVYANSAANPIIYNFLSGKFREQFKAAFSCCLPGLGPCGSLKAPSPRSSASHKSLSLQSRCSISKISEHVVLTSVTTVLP
Description: Orexin target function test (Cisbio HTRF IP-one), CHO-K1-OX1 cells, antagonism of EC80 Orexin A. Format: cell-based. As to the method: (§1) Using Cisbio HTRF IP-one kit to detect the changes in IP-one concentration of orexin receptor (OX1/OX2) signaling pathway by microplate reader, and calculating the IC50 value of the compound to evaluate the antagonistic effect of the compound on OX1 and OX2 receptors.
(§2) The cells were centrifuged at 1000 rpm for 5 minutes and the supernatant was discarded. 3 mL of PBS was added, and gently blown with a pipette to mix. After centrifugation at 1000 rpm for 5 minutes again, the supernatant was discarded. […] Based on the antagonistic effect values of the compound samples at different concentrations, the GraphPad Prism software was used to fit the orexin receptor antagonism curve of the compound samples and calculate the IC50.
(In general: TR-FRET usually uses a lanthanide donor and a delayed reading to cut background.)

The conditions of series [3]: male, SD, rat, in vivo, 30 mg/kg.
Description: as §3, §4
Series [4] concerns the target T2, OX2 receptor (Homo sapiens, UniProt O43614).
T2 construct: host or cells: CHO-K1
T2 sequence (O43614 1-444): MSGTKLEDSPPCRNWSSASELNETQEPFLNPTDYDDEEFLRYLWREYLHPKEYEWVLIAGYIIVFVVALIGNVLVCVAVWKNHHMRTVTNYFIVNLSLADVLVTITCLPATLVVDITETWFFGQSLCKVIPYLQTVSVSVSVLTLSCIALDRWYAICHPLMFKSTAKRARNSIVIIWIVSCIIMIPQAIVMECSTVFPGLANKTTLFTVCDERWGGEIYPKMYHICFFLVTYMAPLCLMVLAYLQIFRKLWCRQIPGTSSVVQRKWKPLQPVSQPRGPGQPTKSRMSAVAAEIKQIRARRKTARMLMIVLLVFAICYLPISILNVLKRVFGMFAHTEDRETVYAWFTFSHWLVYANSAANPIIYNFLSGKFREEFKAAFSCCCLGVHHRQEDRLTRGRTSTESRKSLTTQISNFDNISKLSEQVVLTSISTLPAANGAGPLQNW
Description: Orexin target function test (Cisbio HTRF IP-one), CHO-K1-OX2 cells, antagonism of EC80 Orexin 2 receptor agonist. Format: cell-based. As to the method:
as §1, §2

The nature of series [5]: Blood-brain barrier permeability of the test substance in rats. Conditions: male, SD, rat, oral, 30 mg/kg; for Kp at 0.25 h: brain/plasma.
Description: as §3, §4
A short description of series [6]: in vivo. Conditions: male, SD, rat, plasma.
In series [7] the test system is SD rats. Description: Autonomous activity of rats. The format is in vivo. The conditions noted are these: rat, in vivo. As to the method:
The animals were placed in the test box immediately after administration, and the activity distance of the animals within 60 minutes was recorded and analyzed using Top Scan Version 3.0. […] The experimental data were expressed by mean ± standard deviation (Mean ± SD), and SPSS 21.0 statistical software was used for one-way analysis of variance. The Dunnett's test was used for pairwise comparison, and p<0.05 was represented as *.

Where [8] appears, read: CHO-K1-OX1 cells, IP-one, read-out: hOXIR IC50.
The mark [9] stands for this setting: CHO-K1-OX2 cells, IP-one, read-out: hOX2R IC50.

pIC50: −log10 of the molar value. Where two headings read alike, the source gives them in different places. Marks after values point to notes of the source that are not given here.

For orientation: pIC50 means the negative decadic logarithm of the IC50, by convention in mol/L. With `COc1ncc(C)nc1C1=CC2CN(C(=O)c3ccc(F)cc3-n3nccn3)CC2C1` (stereo not shown) [Compound 44, [4-fluoro-2-(2H-1,2,3-triazol-2-yl)phenyl][5-(3-methoxy-6-methylpyrazin-2-yl)-3,3a,4,6a-tetrahydrocyclopenta[c]pyrrol-2(1H)-yl]methanone], the Kp in series [1] is 0.98. Also, the negative-log IC50 (pIC50) in series [2] is 5.62. Moreover, in series [3], the “Brain” value was determined as 231.3 ng/g and the “Plasma” value was found to be 235.6 ng/mL. In series [4], the pIC50 is 7.74 and the Selectivity worked out at 133.
Turning to `CCOc1ncc(C)nc1C1=CC2CN(C(=O)c3ccc(OC)cc3-n3nccn3)CC2C1` (stereo not shown) [Compound 46, [5-(3-ethoxy-6-methylpyrazin-2-yl)-3,3a,4,6a-tetrahydrocyclopenta[c]pyrrol-2(1H)-yl][4-methoxy-2-(2H-1,2,3-triazol-2-yl)phenyl]methanone], the concentration at 0.25 h was found to be 210 ng/g in series [5] (brain) and 485 ng/mL in series [5] (plasma). Moreover, the Kp at 0.25 h in series [5] stood at 0.43.
Broadly, the AUC(0-t) is exposure summed from dosing to a finite time, without extrapolation to infinity. Read a low AUC(0-t) as low exposure. By Cmax is commonly meant the maximum level reached in the sampled fluid or tissue. As a reminder, the bioavailability is the share of a dose that reaches the circulation, judged against a reference dose that is usually intravenous. Read a high bioavailability as good availability. In the case of `COc1ccc(C(=O)N2CC3C=C(c4nc(C)c(F)c(C)n4)CC3C2)c(-n2nccn2)c1` (stereo not shown) [Compound 5, (5-(5-fluoro-4,6-dimethylpyrimidin-2-yl)-3,3a,4,6a-tetrahydrocyclopenta[c]pyrrol-2(1H)-yl)(4-methoxy-2-(2H-1,2,3-triazol-2-yl)phenyl)methanone], in series [6] (iv, 1 mg/kg), the AUC(0-t) came to 738 ng·h/mL and the maximum concentration (Cmax) was 1600 ng/mL. For the same molecule, in series [6] (po, 30 mg/kg), the exposure AUC(0-t) amounted to 18500 ng·h/mL, the peak concentration (Cmax) was determined as 13800 ng/mL and the bioavailability turned out to be 83.6%. Also, in series [7] (10 mg/kg), the “Activity distance (mm)” value came out at 44396.01±2185.62 mm and the “Inhibition rate(%)” value was 37.50* %. In series [7] (30 mg/kg), the “Activity distance (mm)” value worked out at 32526.47±1464.45 mm and the “Inhibition rate(%)” value is recorded as 45.79* %. Also, the pIC50 in series [2] was 5.55. In series [4], this molecule showed a pIC50 of 7.80 and a Selectivity of 171.
Turning to `Cc1nc(C2=CC3CN(C(=O)c4ccc(F)cc4-n4nccn4)CC3C2)nc(C)c1F` (stereo not shown) [Compound 2, (4-fluoro-2-(2H-1,2,3-triazol-2-yl)phenyl)(5-(5-fluoro-4,6-dimethylpyrimidin-2-yl)-3,3a,4,6a-tetrahydrocyclopenta[c]pyrrol-2(1H)-yl)methanone], in series [6] (iv, 1 mg/kg), the area under the curve AUC(0-t) was 869 ng·h/mL and the highest concentration (Cmax) amounted to 1880 ng/mL. In series [6] (po, 30 mg/kg), this molecule gave an AUC(0-t) of 15000 ng·h/mL, a Cmax of 7480 ng/mL and a bioavailability of 57.6%. Besides, in series [7] (10 mg/kg), the “Activity distance (mm)” value was 52097.9±18671.68 mm and the “Inhibition rate(%)” value is listed as 26.66* %. Besides, in series [7] (30 mg/kg), the “Activity distance (mm)” value came out at 46276.83±15906.44 mm and the “Inhibition rate(%)” value is recorded as 34.85 * %. In series [7] (50 mg/kg), the “Activity distance (mm)” value came out at 37866.51±7149.48 mm and the “Inhibition rate(%)” value is 46.69* %. In series [2], this molecule gave a pIC50 of 5.64. In series [4], this molecule gave a negative-log IC50 (pIC50) of 7.74 and a Selectivity of 128.
As to `COc1ccc(C(=O)N2CC3C=C(c4nc(C)cnc4OC)CC3C2)c(-n2nccn2)c1` (stereo not shown) [Compound 41, (4-methoxy-2-(2H-1,2,3-triazol-2-yl)phenyl)(5-(3-methoxy-6-methylpyrazin-2-yl)-3,3a,4,6a-tetrahydrocyclopenta[c]pyrrol-2(1H)-yl)methanone], the AUC(0-t) in series [6] (iv, 1 mg/kg) came out at 389 ng·h/mL; in series [6] (po, 30 mg/kg) it was 5600 ng·h/mL. Moreover, the Cmax came out at 706 ng/mL in series [6] (iv, 1 mg/kg) and 3980 ng/mL in series [6] (po, 30 mg/kg). The molecule also displayed a bioavailability in series [6] (po, 30 mg/kg) of 48%. The results for the concentration at 0.25 h in series [5] (brain) and in series [5] (plasma) were 990 ng/g and 2570 ng/mL, respectively. Further, the Kp at 0.25 h in series [5] is 0.39. The pIC50 was 5.78 in series [2] (setting [8]) and 7.72 in series [4] (setting [9]). Moreover, the Selectivity in series [4] came to 87.
In the case of `COc1cc(C(=O)N2CC3C=C(c4nc(C)cnc4OC)CC3C2)c(-n2nccn2)cn1` (stereo not shown) [Compound 42, (2-methoxy-5-(2H-1,2,3-triazol-2-yl)pyridin-4-yl)(5-(3-methoxy-6-methylpyrazin-2-yl)-3,3a,4,6a-tetrahydrocyclopenta[c]pyrrol-2(1H)-yl)methanone], the concentration at 0.25 h in series [5] (brain) was determined as 193 ng/g; in series [5] (plasma), 372 ng/mL. The Kp at 0.25 h in series [5] came out at 0.52. For the same molecule, the negative logarithm of the IC50 (pIC50) in series [2] (setting [8]) was 5.89; in series [4] (setting [9]), 7.62. Further, the Selectivity in series [4] was found to be 54.
For `COc1ncc(C)nc1C1=CC2CN(C(=O)c3c(F)cccc3-n3nccn3)CC2C1` (stereo not shown) [Compound 39, (2-fluoro-6-(2H-1,2,3-triazol-2-yl)phenyl)(5-(3-methoxy-6-methylpyrazin-2-yl)-3,3a,4,6a-tetrahydrocyclopenta[c]pyrrol-2(1H)-yl)methanone], the results for the concentration at 0.25 h in series [5] (brain) and in series [5] (plasma) were 285 ng/g and 1020 ng/mL, respectively. The Kp at 0.25 h in series [5] was found to be 0.28. The negative logarithm of the IC50 (pIC50) in series [2] (setting [8]) is 5.92; in series [4] (setting [9]), 7.70. Also, the Selectivity in series [4] is reported as 60.

Source of the values: patent EP4635949A1 (Jiangsu NHWA Pharmaceutical Co., Ltd, priority 2022, dated 2024).
